Test results as given in ChEMBL document CHEMBL1132591, “Synthesis of retinoid X receptor-specific ligands that are potent inducers of adipogenesis in 3T3-L1 cells” (J Med Chem, 1999).

Columns and labels:
[1] = molecular target: T1, Retinoic acid receptor alpha (Homo sapiens) (UniProt P10276); test: Percent transcriptional activation relative to ATRA in CV-1 cells expressing Retinoic acid receptor RAR alpha; type: functional, cell-based
T1 sequence (whole entry): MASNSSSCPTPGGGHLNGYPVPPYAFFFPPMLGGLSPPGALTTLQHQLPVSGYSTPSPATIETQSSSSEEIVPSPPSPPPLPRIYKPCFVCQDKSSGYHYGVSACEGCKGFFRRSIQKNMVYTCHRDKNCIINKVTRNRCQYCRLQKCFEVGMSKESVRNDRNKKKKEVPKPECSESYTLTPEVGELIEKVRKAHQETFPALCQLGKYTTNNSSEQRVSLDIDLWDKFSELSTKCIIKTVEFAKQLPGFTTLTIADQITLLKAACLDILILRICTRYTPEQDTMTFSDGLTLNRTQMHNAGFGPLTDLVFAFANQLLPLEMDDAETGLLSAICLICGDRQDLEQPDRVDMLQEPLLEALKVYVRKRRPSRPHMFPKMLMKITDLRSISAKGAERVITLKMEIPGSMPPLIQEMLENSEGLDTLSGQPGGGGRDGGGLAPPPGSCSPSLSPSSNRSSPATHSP

[2] = molecular target: T2, Retinoic acid receptor RXR-gamma (Homo sapiens, UniProt P48443); test: Transcriptional activity was evaluated in CV-1 cells transfected with expression vector for Retinoic acid receptor RXR-gamma; type: functional, cell-based
T2 sequence (P48443 whole entry): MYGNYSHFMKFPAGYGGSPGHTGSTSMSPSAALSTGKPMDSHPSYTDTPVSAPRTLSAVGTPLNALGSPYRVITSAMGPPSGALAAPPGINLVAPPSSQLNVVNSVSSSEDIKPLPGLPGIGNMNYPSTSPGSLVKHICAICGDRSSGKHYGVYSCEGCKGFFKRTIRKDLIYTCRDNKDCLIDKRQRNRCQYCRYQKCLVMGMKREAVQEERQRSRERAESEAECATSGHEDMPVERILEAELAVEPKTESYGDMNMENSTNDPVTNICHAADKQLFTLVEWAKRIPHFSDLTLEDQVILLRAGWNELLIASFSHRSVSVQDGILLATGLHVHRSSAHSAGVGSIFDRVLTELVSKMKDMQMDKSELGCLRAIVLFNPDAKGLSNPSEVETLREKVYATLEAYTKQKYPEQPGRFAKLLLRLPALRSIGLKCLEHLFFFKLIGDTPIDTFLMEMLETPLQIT

[3] = molecular target: T2, Retinoic acid receptor RXR-gamma; test: Binding affinity towards recombinantly expressed Retinoic acid receptor RXR-gamma in baculoviral system, by using 5 nM [3H]targretin in a competitive binding assay
[4] = molecular target: T3, Retinoic acid receptor RXR-beta (Homo sapiens) (UniProt P28702); test: Percent transcriptional activation relative to ATRA in CV-1 cells expressing Retinoid X receptor RXR beta; type: functional, cell-based
T3 sequence (whole entry): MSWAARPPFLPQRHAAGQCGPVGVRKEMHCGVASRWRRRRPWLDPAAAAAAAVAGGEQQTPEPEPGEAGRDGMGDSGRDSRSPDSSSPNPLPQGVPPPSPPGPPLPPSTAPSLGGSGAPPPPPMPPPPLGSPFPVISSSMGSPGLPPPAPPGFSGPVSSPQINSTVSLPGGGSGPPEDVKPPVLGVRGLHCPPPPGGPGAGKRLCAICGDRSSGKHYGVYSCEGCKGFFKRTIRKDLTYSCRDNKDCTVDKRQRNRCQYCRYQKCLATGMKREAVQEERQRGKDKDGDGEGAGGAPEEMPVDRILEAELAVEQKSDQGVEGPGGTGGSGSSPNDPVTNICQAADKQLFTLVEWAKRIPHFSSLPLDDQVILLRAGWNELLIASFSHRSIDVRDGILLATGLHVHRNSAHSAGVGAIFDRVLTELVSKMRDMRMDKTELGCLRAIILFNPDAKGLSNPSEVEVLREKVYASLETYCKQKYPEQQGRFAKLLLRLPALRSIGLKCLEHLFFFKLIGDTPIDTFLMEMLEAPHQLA

[5] = molecular target: T4, Retinoic acid receptor RXR-beta (Homo sapiens, UniProt P28702); test: Binding affinity towards recombinantly expressed Retinoic acid receptor RXR-beta in baculoviral system, by using 5 nM [3H]targretin in a competitive binding assay
T4 sequence (P28702 whole entry): T3 sequence (whole entry)

[6] = molecular target: T5, Retinoic acid receptor gamma (Homo sapiens) (UniProt P13631); test: Percent transcriptional activation relative to ATRA in CV-1 cells expressing Retinoic acid receptor RAR gamma; type: functional, cell-based
T5 sequence (whole entry): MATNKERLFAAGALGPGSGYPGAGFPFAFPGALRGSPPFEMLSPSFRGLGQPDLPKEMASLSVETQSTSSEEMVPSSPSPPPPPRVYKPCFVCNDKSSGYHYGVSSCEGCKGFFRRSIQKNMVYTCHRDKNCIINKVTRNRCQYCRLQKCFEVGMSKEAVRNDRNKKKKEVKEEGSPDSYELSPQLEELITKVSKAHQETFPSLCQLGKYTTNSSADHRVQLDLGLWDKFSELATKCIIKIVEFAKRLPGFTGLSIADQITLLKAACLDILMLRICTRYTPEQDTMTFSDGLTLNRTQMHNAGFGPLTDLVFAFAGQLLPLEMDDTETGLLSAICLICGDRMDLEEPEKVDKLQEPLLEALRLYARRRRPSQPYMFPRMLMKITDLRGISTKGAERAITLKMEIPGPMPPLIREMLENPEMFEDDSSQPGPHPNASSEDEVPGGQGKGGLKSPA

[7] = molecular target: T4, Retinoic acid receptor RXR-beta; test: Transcriptional activity was evaluated in CV-1 cells transfected with expression vector for Retinoic acid receptor RXR-beta; type: functional, cell-based
[8] = molecular target: T6, Retinoic acid receptor beta (Homo sapiens) (UniProt P10826); test: Percent transcriptional activation relative to ATRA in CV-1 cells expressing Retinoic acid receptor RAR beta; type: functional, cell-based
T6 sequence (whole entry): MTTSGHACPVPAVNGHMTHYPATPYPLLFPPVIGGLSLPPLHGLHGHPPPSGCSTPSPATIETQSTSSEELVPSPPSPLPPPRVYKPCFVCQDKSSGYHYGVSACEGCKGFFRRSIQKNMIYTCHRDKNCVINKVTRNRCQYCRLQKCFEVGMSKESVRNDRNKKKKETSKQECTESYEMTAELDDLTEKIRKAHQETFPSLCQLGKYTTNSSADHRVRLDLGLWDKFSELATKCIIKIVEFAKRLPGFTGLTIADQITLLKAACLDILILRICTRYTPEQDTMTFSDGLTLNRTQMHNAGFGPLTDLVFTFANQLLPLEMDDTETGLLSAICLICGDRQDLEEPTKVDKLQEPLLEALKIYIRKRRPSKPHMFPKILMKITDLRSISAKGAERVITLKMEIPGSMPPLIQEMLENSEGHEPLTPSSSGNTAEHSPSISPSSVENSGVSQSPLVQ

[9] = molecular target: T7, Retinoic acid receptor RXR-alpha (Homo sapiens, UniProt P19793); test: Transcriptional activity was evaluated in CV-1 cells transfected with expression vector for Retinoic acid receptor RXR-alpha; type: functional, cell-based
T7 sequence (P19793 whole entry): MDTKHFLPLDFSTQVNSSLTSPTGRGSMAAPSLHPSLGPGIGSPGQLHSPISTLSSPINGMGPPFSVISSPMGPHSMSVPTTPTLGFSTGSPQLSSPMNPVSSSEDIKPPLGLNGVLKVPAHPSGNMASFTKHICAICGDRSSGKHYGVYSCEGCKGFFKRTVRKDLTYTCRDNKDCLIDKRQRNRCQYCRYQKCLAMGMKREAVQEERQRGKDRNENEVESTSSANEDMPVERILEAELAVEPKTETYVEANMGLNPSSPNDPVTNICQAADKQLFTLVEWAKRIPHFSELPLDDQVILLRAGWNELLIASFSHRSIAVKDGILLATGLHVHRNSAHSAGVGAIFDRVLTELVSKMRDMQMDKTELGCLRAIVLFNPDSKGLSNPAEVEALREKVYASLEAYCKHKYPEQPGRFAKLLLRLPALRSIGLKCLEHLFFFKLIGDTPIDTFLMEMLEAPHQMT

[10] = molecular target: T7, Retinoic acid receptor RXR-alpha; test: Binding affinity towards recombinantly expressed Retinoic acid receptor RXR-alpha in baculoviral system, by using 5 nM [3H]targretin in a competitive binding assay
[11] = molecular target: T8, Retinoic acid receptor beta (Homo sapiens, UniProt P10826); test: Inhibition of [3H]ATRA binding to baculovirus expressed Retinoic acid receptor RAR beta
T8 sequence (P10826 whole entry): T6 sequence (whole entry)

[12] = molecular target: T9, Retinoic acid receptor gamma (Homo sapiens, UniProt P13631); test: Inhibition of [3H]-ATRA binding to baculovirus expressed Retinoic acid receptor RAR gamma
T9 sequence (P13631 whole entry): T5 sequence (whole entry)

[13] = molecular target: T10, Retinoic acid receptor alpha (Homo sapiens, UniProt P10276); test: Inhibition of [3H]ATRA binding to baculovirus expressed Retinoic acid receptor RAR alpha
T10 sequence (P10276 whole entry): T1 sequence (whole entry)

SMILES | Efficacy [1] | EC50 [2] | Ki [3] | Efficacy [4] | Ki [5] | Efficacy [6] | EC50 [7] | Efficacy [8] | EC50 [9] | Ki [10] | Ki [11] | Ki [12] | Ki [13]
Cc1cc2c(cc1/C(=N/O)c1ccc(C(=O)O)cc1)C(C)(C)CCC2(C)C | 6% | 0.007 µM | 0.005 µM | 81% | 0.005 µM | 13% | 0.014 µM | 10% | – | – | – | – | –
CO/N=C(/c1ccc(C(=O)O)cc1)c1cc2c(cc1C)C(C)(C)CCC2(C)C | – | 0.254 µM | 0.238 µM | – | > 1 µM | – | 0.377 µM | – | 0.384 µM | 0.394 µM | – | – | –
CO/N=C(\c1ccc(C(=O)O)cc1)c1cc2c(cc1C)C(C)(C)CCC2(C)C | 2% | 0.004 µM | 0.008 µM | 90% | 0.008 µM | 2% | 0.01 µM | 5% | 0.005 µM | 0.009 µM | > 10 µM | > 10 µM | > 10 µM
CCO/N=C(\c1ccc(C(=O)O)cc1)c1cc2c(cc1C)C(C)(C)CCC2(C)C | – | 0.009 µM | 0.042 µM | – | 0.058 µM | – | 0.012 µM | – | 0.005 µM | 0.026 µM | – | – | –
CCCCO/N=C(\c1ccc(C(=O)O)cc1)c1cc2c(cc1C)C(C)(C)CCC2(C)C | – | 0.099 µM | 0.224 µM | – | 0.283 µM | – | 0.157 µM | – | 0.086 µM | 0.177 µM | – | – | –
Cc1cc2c(cc1/C(=N/OCCN)c1ccc(C(=O)O)cc1)C(C)(C)CCC2(C)C | – | 0.306 µM | > 1 µM | – | > 1 µM | – | 0.061 µM | – | 0.35 µM | > 1 µM | – | – | –
Cc1cc2c(cc1/C(=N/OCC(=O)O)c1ccc(C(=O)O)cc1)C(C)(C)CCC2(C)C | – | 1.38 µM | > 1 µM | – | > 1 µM | – | 1.38 µM | – | 0.713 µM | > 1 µM | – | – | –
Cc1cc2c(cc1/C(=N/OC(C)(C)C)c1ccc(C(=O)O)cc1)C(C)(C)CCC2(C)C | – | > 10 µM | 0.445 µM | – | 0.623 µM | – | > 10 µM | – | > 10 µM | 0.484 µM | – | – | –
CC1(C)CCC(C)(C)c2cc(/C(=N/O)c3ccc(C(=O)O)cc3)c(Br)cc21 | – | 0.026 µM | 0.057 µM | – | 0.006 µM | – | 0.032 µM | – | 0.027 µM | 0.012 µM | – | – | –
Cc1cc2c(cc1/C(=N\O)c1ccc(C(=O)O)cc1)C(C)(C)CCC2(C)C | – | 0.034 µM | 0.209 µM | – | 0.12 µM | – | 0.165 µM | – | – | – | – | – | –
CCO/N=C(/c1ccc(C(=O)O)cc1)c1cc2c(cc1C)C(C)(C)CCC2(C)C | – | > 10 µM | 0.467 µM | – | > 1 µM | – | > 10 µM | – | > 10 µM | 0.62 µM | – | – | –
CCCO/N=C(\c1ccc(C(=O)O)cc1)c1cc2c(cc1C)C(C)(C)CCC2(C)C | – | 0.028 µM | 0.057 µM | – | 0.061 µM | – | 0.037 µM | – | 0.032 µM | 0.006 µM | – | – | –
C=CCO/N=C(\c1ccc(C(=O)O)cc1)c1cc2c(cc1C)C(C)(C)CCC2(C)C | – | 0.007 µM | 0.08 µM | – | 0.015 µM | – | 0.018 µM | – | 0.006 µM | 0.007 µM | – | – | –
CC1(C)CCC(C)(C)c2cc(/C(=N/O)c3ccc(C(=O)O)cc3)ccc21 | – | 2.89 µM | 5.05 µM | – | 3.36 µM | – | > 10 µM | – | 2.96 µM | 4.23 µM | – | – | –
Cc1cc2c(cc1/C(=N\OC(C)(C)C)c1ccc(C(=O)O)cc1)C(C)(C)CCC2(C)C | – | > 10 µM | > 1 µM | – | > 1 µM | – | > 10 µM | – | > 10 µM | > 1 µM | – | – | –
Cc1cc2c(cc1/C(=N/OCC#N)c1ccc(C(=O)O)cc1)C(C)(C)CCC2(C)C | – | 0.011 µM | 0.014 µM | – | 0.014 µM | – | 0.025 µM | – | 0.012 µM | 0.011 µM | – | – | –
CO/N=C(/c1ccc(C(=O)O)cc1)c1ccc2c(c1)C(C)(C)CCC2(C)C | – | 0.206 µM | 0.558 µM | – | 0.363 µM | – | 0.207 µM | – | 0.253 µM | > 1 µM | – | – | –
